We go through 1 compound from patent publication US20250281472A1, “OPHTHALMIC COMPOSITION INHIBITING OCCURRENCE OF N-OXOPYRIDINE COMPOUND FOR PREVENTING OR TREATING EYE DISEASE” (Samjin Pharmaceutical Co., Ltd., priority 2021, published 2025).

This data set is described as follows: Long-term storage of the active ingredient as a liquid eye drop (impurity formation). It is filed as physicochemical. The text has this: The present invention is to provide a composition capable of providing an eye drop treatment for various eye diseases. For this purpose, the composition has the essential condition of securing the stability of the active ingredient in a liquid state as an eye drop for about six months or more. […] And as a result of confirming a structure of the corresponding impurity, it was confirmed that the impurity is 3-phenyl-4-propyl-1-(N-oxopyridin-2-yl)-1H-pyrazol-5-ol (hereinafter, N-oxopyridine compound), in which an N-oxide structure is formed in a pyridine structure of the active ingredient. If the pH condition is adjusted to a neutral region where the active ingredient is stable, most impurities are controlled to be within about 0.5%. However, it was confirmed that the N-oxopyridine compound drastically increases to a level exceeding about 30% with a decrease in the active ingredient content even when the pH is controlled.

Consider `CCCc1c(-c2ccccc2)nn(-c2ccccn2)c1O` [3-phenyl-4-propyl-1-(pyridin-2-yl)-1H-pyrazol-5-ol], for which, for the setting “liquid eye drop stored about six months or more, long-term storage condition, pH controlled to neutral region”, the “level of N-oxopyridine compound” value is “exceeding 30%”. Also, for the setting “liquid eye drop, pH adjusted to a neutral region”, the “most impurities (other than N-oxopyridine compound)” value was not above 0.5%.
